Test results from patent US10131652B2, “Pyrimidinyloxy benzene derivatives as herbicides” (E. I. DU PONT DE NEMOURS AND COMPANY, priority 2014, dated 2018).
Like-named read-outs stand apart in the source and are kept apart here.

How the values were obtained:
Assay type in all cases: in vivo
wild oat (Avena fatua) = experiment: Test D postemergence plant response; details: Avena fatua, post-emergence
Outline: (§1)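 Visual 0–100 rating vs controls (0 = no effect, 100 = complete control), scored 13–15 d after postemergence spray. Plants 1- to 4-leaf stage (2–18 cm), potted in peat/vermiculite mix, kept in greenhouse.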

kochia (Kochia scoparia) = experiment: Test D postemergence plant response; details: Bassia scoparia, post-emergence
Outline: as §1

[1] = test system: chickweed (common chickweed, Stellaria media); experiment: Test D postemergence plant response; details: Stellaria media, post-emergence
Outline: as §1

[2] = test system: barnyardgrass (Echinochloa crus-galli); experiment: Test C flooded paddy test plant response; details: Echinochloa crus-galli; Flood, 250 g ai/ha; scale of 0 to 100 where 0 is no effect and 100 is complete control; 13 to 15 days; read-out: Barnyardgrass plant response rating
Outline: (§2)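 Two-leaf stage → flood to 3 cm → compound into water → hold depth, greenhouse 13–15 d → visual score vs controls (0 none, 100 complete control).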

rice (Oryza sativa) = experiment: Test C flooded paddy test plant response; details: Oryza sativa; Flood, 250 g ai/ha; scale of 0 to 100 where 0 is no effect and 100 is complete control; 13 to 15 days; read-out: Rice plant response rating
Outline: as §2

[3] = test system: ducksalad (Heteranthera limosa); experiment: Test C flooded paddy test plant response; details: Heteranthera limosa; Flood, 250 g ai/ha; scale of 0 to 100 where 0 is no effect and 100 is complete control; 13 to 15 days; read-out: Ducksalad plant response rating
Outline: as §2

[4] = test system: small-flower umbrella sedge (Cyperus difformis); experiment: Test C flooded paddy test plant response; details: Cyperus difformis; Flood, 250 g ai/ha; scale of 0 to 100 where 0 is no effect and 100 is complete control; 13 to 15 days; read-out: Sedge, Umbrella plant response rating
Outline: as §2

[5] = test system: yellow nutsedge (Cyperus esculentus); experiment: Test D pre-/postemergence plant response; details: Cyperus, pre-emergence, Preemergence
Outline: (§3)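 Visual rating, 0–100 scale (0 = no effect, 100 = complete control), versus untreated controls 13 to 15 days after treatment in greenhouse. Preemergence: seeds in loam/sand soil. Postemergence: 2 to 18 cm plants, 1- to 4-leaf stage, peat-based medium. Compounds formulated in non-phytotoxic solvent plus surfactant.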

[6] = test system: oilseed rape (Brassica napus); experiment: Test D pre-/postemergence plant response; details: Brassica napus; for plant injury at 16 g/ha: 16 g ai/ha; for plant injury at 31 g/ha: 31 g ai/ha; for plant injury at 62 g/ha: 62 g ai/ha; for plant injury at 125 g/ha: 125 g ai/ha
Outline: as §3

[7] = test system: large (Lg) crabgrass (Digitaria sanguinalis); experiment: Test D pre-/postemergence plant response; details: Digitaria sanguinalis; for pest or weed control at 16 g/ha: 16 g ai/ha; for pest or weed control at 31 g/ha: 31 g ai/ha; for pest or weed control at 62 g/ha: 62 g ai/ha; for pest or weed control at 125 g/ha: 125 g ai/ha
Outline: as §3

soybean (Glycine max) = experiment: Test D pre-/postemergence plant response; details: Glycine max; for plant injury at 16 g/ha: 16 g ai/ha; for plant injury at 31 g/ha: 31 g ai/ha; for plant injury at 62 g/ha: 62 g ai/ha; for plant injury at 125 g/ha: 125 g ai/ha
Outline: as §3

[8] = test system: velvetleaf (Abutilon theophrasti); experiment: Test D pre-/postemergence plant response; details: Abutilon theophrasti; for pest or weed control at 16 g/ha: 16 g ai/ha; for pest or weed control at 31 g/ha: 31 g ai/ha; for pest or weed control at 62 g/ha: 62 g ai/ha; for pest or weed control at 125 g/ha: 125 g ai/ha
Outline: as §3

[9] = test system: johnsongrass (Sorghum halepense); experiment: Test D pre-/postemergence plant response; details: Sorghum halepense; for pest or weed control at 16 g/ha: 16 g ai/ha; for pest or weed control at 31 g/ha: 31 g ai/ha; for pest or weed control at 62 g/ha: 62 g ai/ha; for pest or weed control at 125 g/ha: 125 g ai/ha
Outline: as §3

[10] = test system: winter wheat (Triticum aestivum); experiment: Test D pre-/postemergence plant response; details: Triticum aestivum; for plant injury at 16 g/ha: 16 g ai/ha; for plant injury at 31 g/ha: 31 g ai/ha; for plant injury at 62 g/ha: 62 g ai/ha; for plant injury at 125 g/ha: 125 g ai/ha
Outline: as §3

[11] = post-emergence, Postemergence, scale 0 to 100 (0 no effect, 100 complete control), read-out: Oilseed Rape plant response rating
[12] = post-emergence, Postemergence, scale 0 to 100, 0 no effect, 100 complete control, read-out: Plant response rating, Oilseed Rape
[13] = pre-emergence, Preemergence, scale 0 to 100 (0 no effect, 100 complete control), read-out: Plant response rating, Oilseed Rape
[14] = post-emergence, Postemergence, scale 0 to 100 (0 no effect, 100 complete control), read-out: Crabgrass, Large plant response rating
[15] = post-emergence, Postemergence, scale 0 to 100, 0 no effect, 100 complete control, read-out: Plant response rating, Crabgrass, Large
[16] = pre-emergence, Preemergence, scale 0 to 100 (0 no effect, 100 complete control), read-out: Plant response rating, Crabgrass, Large
[17] = post-emergence, Postemergence, scale 0 to 100 (0 no effect, 100 complete control), read-out: Soybean plant response rating
[18] = post-emergence, Postemergence, scale 0 to 100, 0 no effect, 100 complete control, read-out: Plant response rating, Soybean
[19] = pre-emergence, Preemergence, scale 0 to 100 (0 no effect, 100 complete control), read-out: Plant response rating, Soybean
[20] = post-emergence, Postemergence, scale 0 to 100 (0 no effect, 100 complete control), read-out: Velvetleaf plant response rating
[21] = post-emergence, Postemergence, scale 0 to 100, 0 no effect, 100 complete control, read-out: Plant response rating, Velvetleaf
[22] = pre-emergence, Preemergence, scale 0 to 100 (0 no effect, 100 complete control), read-out: Plant response rating, Velvetleaf
[23] = post-emergence, Postemergence, scale 0 to 100 (0 no effect, 100 complete control), read-out: Johnsongrass plant response rating
[24] = post-emergence, Postemergence, scale 0 to 100, 0 no effect, 100 complete control, read-out: Plant response rating, Johnsongrass
[25] = pre-emergence, Preemergence, scale 0 to 100 (0 no effect, 100 complete control), read-out: Plant response rating, Johnsongrass
[26] = post-emergence, Postemergence, scale 0 to 100 (0 no effect, 100 complete control), read-out: Wheat plant response rating
[27] = post-emergence, Postemergence, scale 0 to 100, 0 no effect, 100 complete control, read-out: Plant response rating, Wheat
[28] = pre-emergence, Preemergence, scale 0 to 100 (0 no effect, 100 complete control), read-out: Plant response rating, Wheat

## FC(F)c1cc(-c2ccccc2Oc2ncc(Cl)cn2)on1 [Compound 53, 5-chloro-2-[2-[3-(difluoromethyl)-5-isoxazolyl]phenoxy]pyrimidine]
Wild oat (Avena fatua); 16 g ai/ha, scale 0 to 100 (0 no effect, 100 complete control), read-out: Oat, Wild plant response rating
  pest or weed control at 16 g/ha: 5%
Wild oat (Avena fatua); 31 g ai/ha, scale 0 to 100 (0 no effect, 100 complete control), read-out: Oat, Wild plant response rating
  pest or weed control at 31 g/ha: 10%
Wild oat (Avena fatua); 62 g ai/ha, scale 0 to 100, 0 no effect, 100 complete control, read-out: Plant response rating, Oat, Wild
  pest or weed control at 62 g/ha: 30%
Wild oat (Avena fatua); 125 g ai/ha, scale 0 to 100, 0 no effect, 100 complete control, read-out: Plant response rating, Oat, Wild
  pest or weed control at 125 g/ha: 20%
Kochia (Kochia scoparia); 16 g ai/ha, scale 0 to 100 (0 no effect, 100 complete control), read-out: Kochia plant response rating
  pest or weed control at 16 g/ha: 90%
Kochia (Kochia scoparia); 31 g ai/ha, scale 0 to 100 (0 no effect, 100 complete control), read-out: Kochia plant response rating
  pest or weed control at 31 g/ha: 100%
Kochia (Kochia scoparia); 62 g ai/ha, scale 0 to 100, 0 no effect, 100 complete control, read-out: Plant response rating, Kochia
  pest or weed control at 62 g/ha: 100%
Kochia (Kochia scoparia); 125 g ai/ha, scale 0 to 100, 0 no effect, 100 complete control, read-out: Plant response rating, Kochia
  pest or weed control at 125 g/ha: 100%
[1]; 16 g ai/ha, scale 0 to 100 (0 no effect, 100 complete control), read-out: Chickweed plant response rating
  pest or weed control at 16 g/ha: 50%
[1]; 31 g ai/ha, scale 0 to 100 (0 no effect, 100 complete control), read-out: Chickweed plant response rating
  pest or weed control at 31 g/ha: 80%
[1]; 62 g ai/ha, scale 0 to 100, 0 no effect, 100 complete control, read-out: Plant response rating, Chickweed
  pest or weed control at 62 g/ha: 80%
[1]; 125 g ai/ha, scale 0 to 100, 0 no effect, 100 complete control, read-out: Plant response rating, Chickweed
  pest or weed control at 125 g/ha: 90%
[2]
  pest or weed control at 250 g/ha: 20%
Rice (Oryza sativa)
  plant injury at 250 g/ha: 20%
[3]
  pest or weed control at 250 g/ha: 80%
[4]
  pest or weed control at 250 g/ha: 75%
[5]; 125 g ai/ha, read-out: Plant response rating (scale 0 to 100), Nutsedge, Yellow
  pest or weed control at 125 g/ha: 5%
[5]; 16 g ai/ha, scale 0 to 100 (0 no effect, 100 complete control), read-out: Plant response rating, Nutsedge, Yellow
  pest or weed control at 16 g/ha: 20%
[5]; 31 g ai/ha, scale 0 to 100 (0 no effect, 100 complete control), read-out: Plant response rating, Nutsedge, Yellow
  pest or weed control at 31 g/ha: 0%
[5]; 62 g ai/ha, scale 0 to 100 (0 no effect, 100 complete control), read-out: Plant response rating, Nutsedge, Yellow
  pest or weed control at 62 g/ha: 0%
[6]; [11]
  plant injury at 16 g/ha: 70%
  plant injury at 31 g/ha: 80%
[6]; [12]
  plant injury at 62 g/ha: 95%
  plant injury at 125 g/ha: 85%
[6]; pre-emergence, Preemergence, read-out: Plant response rating (scale 0 to 100), Oilseed Rape
  plant injury at 125 g/ha: 100%
[6]; [13]
  plant injury at 16 g/ha: 80%
  plant injury at 31 g/ha: 100%
  plant injury at 62 g/ha: 100%
[7]; [14]
  pest or weed control at 16 g/ha: 10%
  pest or weed control at 31 g/ha: 20%
[7]; [15]
  pest or weed control at 62 g/ha: 15%
  pest or weed control at 125 g/ha: 30%
[7]; pre-emergence, Preemergence, read-out: Plant response rating (scale 0 to 100), Crabgrass, Large
  pest or weed control at 125 g/ha: 100%
[7]; [16]
  pest or weed control at 16 g/ha: 65%
  pest or weed control at 31 g/ha: 95%
  pest or weed control at 62 g/ha: 98%
Soybean (Glycine max); [17]
  plant injury at 16 g/ha: 60%
  plant injury at 31 g/ha: 90%
Soybean (Glycine max); [18]
  plant injury at 62 g/ha: 95%
  plant injury at 125 g/ha: 98%
Soybean (Glycine max); pre-emergence, Preemergence, read-out: Plant response rating (scale 0 to 100), Soybean
  plant injury at 125 g/ha: 80%
Soybean (Glycine max); [19]
  plant injury at 16 g/ha: 0%
  plant injury at 31 g/ha: 25%
  plant injury at 62 g/ha: 55%
[8]; [20]
  pest or weed control at 16 g/ha: 55%
  pest or weed control at 31 g/ha: 60%
[8]; [21]
  pest or weed control at 62 g/ha: 70%
  pest or weed control at 125 g/ha: 100%
[8]; pre-emergence, Preemergence, read-out: Plant response rating (scale 0 to 100), Velvetleaf
  pest or weed control at 125 g/ha: 100%
[8]; [22]
  pest or weed control at 16 g/ha: 100%
  pest or weed control at 31 g/ha: 100%
  pest or weed control at 62 g/ha: 100%
[9]; [23]
  pest or weed control at 16 g/ha: 0%
  pest or weed control at 31 g/ha: 0%
[9]; [24]
  pest or weed control at 62 g/ha: 5%
  pest or weed control at 125 g/ha: 5%
[9]; pre-emergence, Preemergence, read-out: Plant response rating (scale 0 to 100), Johnsongrass
  pest or weed control at 125 g/ha: 55%
[9]; [25]
  pest or weed control at 16 g/ha: 0%
  pest or weed control at 31 g/ha: 0%
  pest or weed control at 62 g/ha: 35%
[10]; [26]
  plant injury at 16 g/ha: 0%
  plant injury at 31 g/ha: 0%
[10]; [27]
  plant injury at 62 g/ha: 0%
  plant injury at 125 g/ha: 0%
[10]; pre-emergence, Preemergence, read-out: Plant response rating (scale 0 to 100), Wheat
  plant injury at 125 g/ha: 5%
[10]; [28]
  plant injury at 16 g/ha: 0%
  plant injury at 31 g/ha: 0%
  plant injury at 62 g/ha: 0%
